Assay results: patent US20040142875A1, “Metastin derivatives and their use” (priority 2003, published 2004)
“Also recorded” adds a separate entry of the source. The star is where a group is joined. X1 = 4‑(N,N-Bis(2-pyridylmethyl)aminomethyl)benzoyl, O=C(c1ccc(CN(Cc2ccccn2)Cc2ccccn2)cc1)*; 4‑(guanidinomethyl)benzoyl = N=C(N)NCc1ccc(C(=O)*)cc1

Tests used:
[1] = test system: Panc-1 cells; experiment: Cell proliferation assay, Panc-1; type: cell-based; conditions: for proliferation activity (cell growth): Panc-1 with KiSS-1 short derivatives, FIG. 7A
Experimental: (§1) Pancreatic cancer cell lines AsPC-1, BxPC-3, Capan-2, CFPAC-1, Panc-1 and Suit-2 were purchased from the American Type Culture Collection. Cells were cultured as monolayers in the appropriate medium supplemented with 10% fetal bovine serum, 100 units/ml penicillin, and 100 μg/ml streptomycin at 37° C., in a humid atmosphere of 5% CO2/95% air. As for AsPC-1 and Panc-1, upon reaching 80% confluence, the medium was removed, the cells were washed in phosphate-buffered saline (PBS) and treated with increasing doses of metastin (Takeda Chemical Industries, Osaka, Japan) with 10% fetal bovine serum and protein was isolated 15 minutes later as described below.
(§2) For assaying proliferation, AsPC-1 and Panc-1 cells (1×10^4cells/3 cm diameter dish) were seeded in 10% FBS medium and incubated with increasing doses of metastin for 48 and 96 hours. Cells were trypsinized and cell numbers were counted using hematocytometer.

[2] = test system: Panc-1 cells; experiment: Cell migration assay, Panc-1; type: cell-based; conditions: for migration index: Panc-1 with KiSS-1 short derivatives, FIG. 7B
Experimental: (§3) A polyvinylpyrrolidone-free polycarbonate framed filter (8 μm pores) was set in a microchemotasis chamber (Corning Coster Corp., Cambridge, Mass.). Cells (2×10^6 cells in 200 μl RPMI1640 for AsPC-1 and in 200 μl DMEM for Panc-1) and peptide were added to the upper chamber and incubated at 37° C. for 12 hours to allow migration to the lower chamber, which contained 10% FBS/RPMI1640 for AsPC-1 or 5% FBS/DMEM for Panc-1 as a chemoattractant. After removing nonmigrating cells with a cotton swab from the upper surface of the membrane, cells on the lower surface were fixed, stained with Diff-Quick (International Reagent, Kobe, Japan). For quantification, cells were counted under a microscope in five predetermined fields at X200.

[3] = test system: ERK1/2, p38 and JNK1/2 in Panc-1 cells; experiment: MAPK activation by Western blot, Panc-1; type: cell-based; conditions: 15 minutes, immunoblot, FIG. 5, FIG. 7C
Experimental: as §1
Cells were collected into microtubes with a cell scraper and lysed for 60 min in phosphorylation-inhibitory RIPA buffer containing 50 mM HEPES (pH 7.0), 250 mM NaCl, 0.1% Nonidet P-40, 1 mM phenylmethylsulfonyl fluoride (PMSF) and 20 μg /ml gabexate mesilate, then the lysate was sonicated for 10 sec. Total extracts were cleaned by centrifugation at 12,000 rpm for 10 min at 4° C., the supernatants were collected. Protein concentrations were measured using a protein assay kit (Tonein-TP, Otsuka Pharmaceutical, Tokyo, Japan). The lysates were resuspended in one volume of the gel loading buffer which contained 50 mM Tris-HCl (pH 6.7), 4% SDS, 0.02% bromophenol blue, 20% glycerol and 4% 2-mercaptoethanol, and then boiled at 95° C. for 90 sec. The extracted protein was subjected to Western blotting, as previously described (Wada, M. et al., Pancreas. 15: 176-82., 1997). In brief, 30 μg aliquots of protein was size-fractionated to a single dimension by SDS-PAGE (12% gels) and transblotted to a 0.45 μm polyvinylidene difluoride membrane (Bio-Rad, Richmond, Calif.) in a semidry electroblot apparatus (Bio-Rad, Richmond, Calif.). The blots were, then washed three times with TBST buffer and incubated for two hours at RT in the first antibody solution containing anti-phosphoERK antibody (#pTEpY, Promega, Madison, Wis.), anti-phosphop38 MAPK (#pTGpY, Promega, Madison, Wis.) or anti-phosphoJNK(#pTPpY, Promega, Madison, Wis.), 0.2% I-block (Promega, Madison, Wis.). After three washings in TBST buffer, the blots were incubated for one hour at RT with horseradish peroxidase conjugated anti-rabbit IgG at a 1:2000 dilution with TBST buffer. After three washings in TBST buffer, membranes were treated with enhanced chemiluminescence reagents (Amersham Life Sciences, Amersham, UK) according to the manufacturer's protocol. Membranes were exposed to X-ray film for 5-60 seconds. Protein expression was measured by ATTO densito-analyzer system AE-6920M (ATTO Corporation, Tokyo Japan) and the quantity was expressed numerically. The quantity of the target protein was divided by that of beta actin and relative intensities were obtained.
To evaluate the signaling pathways activated by endogenous metastin receptors in pancreatic cancer, activation of MAPK was examined by treatment with metastin. Cells in exponential stage were incubated in serum containing medium and then transferred to the 1% BSA medium with metastin, as in the case of migration or invasion assay. After incubation with increasing dose of metastin (0 μM, 0.1 μM, 1 μM, 10 μM) for 15 minutes, activation of ERK1/2, p38 and JNK1/2 were measured by immunoblot (FIG. 5A).

[4] = test system: hOT7T175 transfected Chinese hamster ovary (CHO) cells; conditions: hOT7T175 transfected CHO cells in vitro; Hori et al., Kotani et al.; cited from earlier work
[5] = test system: Panc-1 cells; experiment: Matrigel invasion assay, Panc-1; type: cell-based; conditions: 10 μM metastin, 12 hours, FIG. 4B
Experimental: (§4) Cells and peptide (2×10^6 cells in 200 μl RPMI1640 for AsPC-1 and in 200 μl DMEM for Panc-1) were added to a Matrigel-coated Transwell(8 μm pores,. Becton Dickinson Labware, Bedford, Mass.) and incubated at 37° C. for 12 hours versus a lower chamber containing 10% FBS/RPMI1640 for AsPC-1 or 5% FBS/DMEM for Panc-1. After removing the Matrigel and cells from the upper surface of the membrane, cells on the lower surface were fixed, stained with Diff-Quick and quantified the number as well. Invasion index was defined as the number of invasion cells per that of migrating cells.

[6] = test system: hOT7T175 transfected B16-BL6 melanomas; conditions: hOT7T175 transfected B16-BL6 melanomas in vivo; Ohtaki et al.; cited from earlier work
[7] = test system: AsPC-1 cells; experiment: Cell migration assay, AsPC-1; type: cell-based; conditions: metastin 0 μM, 100 μM, 1 μM, 10 μM for 12 hours, FIG. 4A
Experimental: as §3

[8] = test system: AsPC-1 cells; experiment: Matrigel invasion assay, AsPC-1; type: cell-based; conditions: 10 μM metastin, 12 hours, FIG. 4B
Experimental: as §4

[9] = test system: AsPC-1 cells; experiment: Cell proliferation assay, AsPC-1; type: cell-based; conditions: metastin 0, 100 μM, 1 μM and 10 μM for 48 hours and 96 hours, FIG. 3
Experimental: as §1, §2

[10] = test system: ERK1/2, p38 and JNK1/2 in AsPC-1 cells; experiment: MAPK activation by Western blot, AsPC-1; type: cell-based; conditions: 0-10 μM for 15 minutes, immunoblot
Experimental: as §1
Cells were collected into microtubes with a cell scraper and lysed for 60 min in phosphorylation-inhibitory RIPA buffer containing 50 mM HEPES (pH 7.0), 250 mM NaCl, 0.1% Nonidet P-40, 1 mM phenylmethylsulfonyl fluoride (PMSF) and 20 μg /ml gabexate mesilate, then the lysate was sonicated for 10 sec. […] Protein concentrations were measured using a protein assay kit (Tonein-TP, Otsuka Pharmaceutical, Tokyo, Japan). […] Protein expression was measured by ATTO densito-analyzer system AE-6920M (ATTO Corporation, Tokyo Japan) and the quantity was expressed numerically. The quantity of the target protein was divided by that of beta actin and relative intensities were obtained. […]

Substance	proliferation activity (cell growth) [1]	migration index [2]	activation of ERK1 (pERK1) [3]	activation of JNK1/2 (pJNKs) [3]	activation of p38 (pp38) [3]	cell growth ([1]; Panc-1, metastin 0, 100 μM, 1 μM and 10 μM for 48 hours and 96 hours, FIG. 3)	chemotaxis and invasion [4]	reduction of migratory activity ([2]; Panc-1, metastin 0 μM, 100 μM, 1 μM, 10 μM for 12 hours, p<0.01, FIG. 4A)	invasion activity (invasion index) [5]	pulmonary metastasis [6]	migratory activity [7]	invasion activity (invasion index) [8]	cell growth [9]	activation of ERK1 (pERK1) [10]	activation of JNK1/2 (pJNKs) [10]
4-(guanidinomethyl) benzoyl-Phe-Gly-Leu-Arg-Trp-NH2 ({4‑(guanidinomethyl)benzoyl}-FGLRW-NH2) [FM053a]	cell growth was not affected	reduced the migration index; also recorded: less suppressive than FM052a	less activation of pERK1 than FM052a	not augmented	slightly activated										
metastin: 54 amino acid peptide with C-terminal amidation processed from KiSS-1; ligand of receptor hOT7T175 (AXOR12)			pERK1 was augmented	no reduction or increase of pJNKs	Slight activation of p38	Neither AsPC-1 nor Panc-1 showed growth retardation	inhibit chemotaxis and invasion	up to 40%	Invasion activity was not influenced	attenuates pulmonary metastasis	little influenced	Invasion activity was not influenced	Neither AsPC-1 nor Panc-1 showed growth retardation	pERK1 was augmented	no reduction or increase of pJNKs
4-[N,N-Bis(2 -pyridylmethyl)aminomethyl]benzoyl-Phe-Gly-Leu-Arg-Trp-NH2 (X1-FGLRW-NH2) [FM052a]	cell growth was not affected	reduced the migration index; also recorded: nearly same activity with metastin	ERK1 activation was observed	not augmented	slightly activated										
